From publication PMC6571560, “Aldose Reductase, Protein Glycation Inhibitory and Antioxidant of Peruvian Medicinal Plants: The Case of Tanacetum parthenium L. and Its Constituents” (Molecules, 2019)

Assays:
[1] = tested on: advanced glycation end products (AGEs) formation; experiment: Bovine serum albumin-methylglyoxal assay for AGEs formation; format: biochemical; conditions: for IC50: table head prints no unit, μM
Experimental: BSA (50 mg/mL) was incubated with methylglyoxal (100 mM) in sodium phosphate buffer (0.1 M, pH 7.4) in the presence of various concentrations of the compounds (including a control) at 37 °C for 24 h. Then, the fluorescence intensity was measured at an excitation wavelength of 355 nm and an emission wavelength of 460 nm with a luminescence spectrometer (LS50B, Perkin–Elmer Ltd., Buckinghamshire, UK). […] All reagents and samples were sterilized by filtration through […] membrane filters.

[2] = target: T1, rat lens aldose reductase (RLAR) (Rattus norvegicus, UniProt P07943); experiment: Rat lens aldose reductase (RLAR) inhibition, NADPH absorbance decrease at 340 nm; format: biochemical; conditions: for IC50: mean ± SEM, three independent experiments in duplicate
T1 construct: The supernatant was collected and used as the RLAR; from tissue; host or cells: lenses of Sprague-Dawley rats (homogenate supernatant)
Experimental: Crude RLAR was prepared as follows: lenses were removed from Sprague-Dawley rats (Weighing 250–280 g) and frozen at −70 °C until use. Non-cataractous transparent lenses were pooled, and a homogenate was prepared in 0.1 M phosphate-buffered saline (pH 6.2). The RLAR homogenate was then centrifuged at 10,000× gfor 20 min at 4 °C in a refrigerated centrifuge. The supernatant was collected and used as the RLAR [35]. This experiment was approved by the University of Hallym Animal Care and Use Committee (Registration Number: Hallym R2016-60). All of the procedures were conducted in accordance with the ‘Guide for Care and Use of Laboratory Animals’, published by the National Institutes of Health.
A total of 531 μL of 0.1 M potassium buffer (pH 7.0), 90 μL of NADPH solution (1.6 mM in potassium buffer), 90 μL of RLAR homogenate (6.5 U/mg), 90 μL of ammonium sulfate solution (4 M in potassium buffer), and 90 μL of DL-glyceraldehyde (25 mM in potassium buffer) were mixed with 9 μL of different concentrations of samples (1–0.1 mg/mL in dimethylsulfoxide (DMSO), Less than 1% in total mixture) in a cuvette, and the activity of RLAR was assessed spectrophotometrically by measuring the decrease in NADPH absorbance at 340 nm for 3 min using a spectrophotometer (SECOMAM, Ales Cedex, France).

[3] = target: T2, human recombinant aldose reductase (HRAR) (Homo sapiens, UniProt P15121); experiment: Human recombinant aldose reductase ultrafiltration HPLC assay; format: binding; conditions: peak in TP extract (0.1 mg/mL) incubated with 3.9 μM HRAR
T2 construct: purchased Wako Pure Chemical Industries (Osaka, Japan)
Experimental: The inhibitory compounds of HRAR from TP were profiled by an AR ultrafiltration assay. Specifically, TP (at a final concentration of 0.1 mg/mL) was incubated with 0.6 M ammonium sulfate and 3.9 μM HRAR in a total volume of 300 μL at 37 °C for 30 min. Then, the incubated mixture was filtered by using a Microcon YM-10 centrifugal filter unit by centrifugation at 5167× g for 30 min at room temperature. The filtrate was subsequently analyzed by using the methods mentioned in the HPLC analysis section. A sample incubated without HRAR was used as a control. The relative binding affinity of the inhibitors from TP toward HRAR was defined as the “binding degree” (BD), which can be calculated as follows: BD (%) = (Aa − Ab)/Aa × 100, in which Aa and Ab are the peak areas of a compound without and with HRAR in the HPLC chromatograms, respectively.

[4] = DPPH-HPLC assay; conditions: peak in TP extract after reaction with DPPH, HPLC 254 nm
Experimental: The antioxidant compounds from TP were profiled with a DPPH-HPLC assay. TP (90 µL; 10.0 mg/mL) was mixed with 540 µL of DPPH solution (0.32 mM), and the mixed solution was then incubated at 37 °C for 20 min in a dark room. The solution was then filtered through a 0.45 µm membrane filter and then subjected to HPLC analysis. The HPLC conditions were the same as those described in the HPLC analysis section.

[5] = tested on: sorbitol accumulation in rat lens; experiment: Lens culture and sorbitol accumulation in rat lens; format: cell-based; conditions: compound 5 μg/mL, mean ± SD (n = 3); for Sorbitol Content (mg)/lens Wet Weight (g): rat lens cultured 6 d in 30 mM glucose; for inhibition at 5 µg/mL: rat lens cultured in 30 mM glucose
Experimental: Lenses isolated from 10-week-old Sprague-Dawley rats were cultured for 6 d in TC-199 medium that contained 15% fetal bovine serum, 100 units/mL penicillin, and 0.1 mg/mL streptomycin, under sterile conditions and an atmosphere of 5% CO2 and 95% air at 37 °C. The lenses were divided into three groups and cultured in medium containing 30 mM glucose and active compounds. Each lens was placed in a well containing 2.0 mL of medium. Sorbitol was determined by HPLC after derivatization by reaction with benzoic acid to a form of a fluorescent compound [37].

[6] = DPPH radical scavenging capacity
Experimental: The DPPH radical scavenging capacity assay method of Yin et al. was used. DPPH (0.32 mM) was diluted with MeOH, and this solution (180 µL) was mixed with 30 µL of the sample at each concentration. After 20 min of incubation in a darkroom, the absorbance at 570 nm was recorded on a microplate reader (EL800 Universal Microplate reader, Bio-Tek Instruments, Winooski, VT, USA). DPPH radical scavenging activity was expressed as the percentage inhibition (%) of DPPH in the aforementioned assay system and was calculated as (1 – B/A) × 100, in which A and B are the activities of DPPH without and with the test material, respectively.

| Structure (SMILES) | AGEs Inhibition (%) ([1]; 20 μg/mL) | IC50 [2] [µM] | HRAR binding degree (%) [3] [%] | DPPH PAR (%), peak area reduction [4] [%] | Sorbitol Content (mg)/lens Wet Weight (g) [5] [mg/g] | inhibition at 5 µg/mL [5] [%] | IC50 [1] [µM] | other results |
| --- | --- | --- | --- | --- | --- | --- | --- | --- |
| N=C(N)NN [Aminoguanidine, aminoguanidine, reference compound] | 20.75 |  |  |  |  |  |  | AGEs Inhibition (%) ([1]; 100 μg/mL): 39.94%; AGEs Inhibition (%) ([1]; 200 μg/mL): 75.32%; AGEs IC50 ([1]; mean ± SEM): 121.96 ± 5.10 µg/mL |
| COc1cc(/C=C/C(=O)O)ccc1O [Compound 1, ferulic acid] |  | 1.11 to 3.2 | 27.08 | 23.53 | 0.29 ± 0.03 | 80.3 ± 2.38 |  |  |
| O=c1cc(-c2ccc(O)cc2)oc2cc(O)cc(O)c12 [Compound 2, apigenin] | 8.14 | 1.11 to 3.2 | 15.00 | 11.28 | 0.19 ± 0.06 | 87.1 ± 2.37 | > 55 |  |
| O=c1cc(-c2ccc(O)c(O)c2)oc2cc(O[C@@H]3O[C@H](CO)[C@@H](O)[C@H](O)[C@H]3O)cc(O)c12 [Compound 3, luteolin-7-O-glucoside] |  | 1.11 to 3.2 | 26.58 | 16.85 | 0.07 ± 0.01 | 95.2 ± 5.97 |  | AGEs inhibition potency relative to aminoguanidine (times higher) ([1]; ratio of IC50 values): 32.23 times |
| O=c1cc(-c2ccc(O)c(O)c2)oc2cc(O)cc(O)c12 [Compound 4, luteolin] |  |  | 38.02 | 29.36 | 0.12 ± 0.02 | 91.8 ± 5.23 |  |  |
| COc1cc2oc(-c3ccc(O)c(O)c3)c(OC)c(=O)c2c(O)c1OC [Compound 5, chrysosplenol] | 5.38 | 1.11 to 3.2 | 25.54 | 7.19 | 0.26 ± 0.03 | 82.3 ± 2.39 | > 55 | IC50 ([6]; mean ± SEM, listed as Chrysosplenol (5)): > 250 µM |
| O=c1c(O)c(-c2ccc(O)cc2)oc2cc(O)cc(O)c12 [Compound 6, kaempferol] |  | 1.11 to 3.2 | 24.29 | 13.97 | 0.03 ± 0.00 | 98 ± 6.31 | > 55 |  |
| COc1ccc(-c2oc3cc(O)c(OC)c(O)c3c(=O)c2OC)cc1 [Compound 7, santin] | 13.15 | > 28 | 0 | 0 |  |  | > 55 | IC50 ([6]; mean ± SEM): > 208 µM |
| O=C1O[C@H]([C@@H](O)CO)C(O)=C1O [L-ascorbic acid] |  |  |  |  |  |  |  | DPPH Inhibition (%) ([6]; 3 μg/mL): 33.71%; DPPH Inhibition (%) ([6]; 7.5 μg/mL): 58.34%; DPPH Inhibition (%) ([6]; 15 μg/mL): 97.23%; DPPH IC50 ([6]; mean ± SEM): 6.02 ± 0.37 µg/mL |
| O=c1c(O)c(-c2ccc(O)c(O)c2)oc2cc(O)cc(O)c12 [Quercetin, quercetin, reference compound] |  |  |  |  | 0.21 ± 0.02 | 85.7 ± 5.71 |  | inhibition at 0.5 µg/mL ([2]; 0.5 μg/mL): 23.6%; inhibition at 1 µg/mL ([2]; 1 μg/mL): 44.8%; inhibition at 10 µg/mL ([2]; 10 μg/mL): 81.3% |
